Experimental findings from US11028052B2, “Compounds useful as modulators of TRPM8” (Firmenich Incorporated, priority 2013, dated 2021) are described below.

In brackets after ≈: the same amount, converted by molar mass.

For one data set, the target named is T1, hTRPM8 (Homo sapiens, UniProt Q7Z2W7).
T1 construct: expressed in transfected cells
As to the kind of experiment: hTRPM8 cell based agonist assay (section 1.1). As to conditions: mammalian cell line stably expressing TRPM8. An excerpt:
The present compounds are useful as modulators of TRPM8. The activity of TRPM8 can be readily monitored in cell based assays using fluorescent calcium-sensitive dyes, membrane potential dyes, or sodium-sensitive dyes. The activity of TRPM8 can also be monitored with electrophysiological set-ups, such as patch-clamping and two-electrode voltage clamping. A mammalian cell line derivative which stably expresses TRPM8 was used in biological assays in association with testing the present compounds with cool-tasting or -feeling properties (Servant et al. US 2007/0259354 A1 and references cited therein). Typical compound concentrations tested were 100 μM, 50 μM, 10 μM, 1 μM, and 0.5 μM. The present compounds have shown strong activity as agonists of hTRPM8. Assay results for compounds are illustrated in Table 1 below. Specifically, the Compounds listed in Table 1.1, e.g., Compounds 1.A1 to Compounds 1.A9 are the specific compounds as described herein. For example, Compounds 1.A1 is Example 1.1.

The next data set can be described thus: Solubility in LSB. The conditions noted are these: Low Sodium Buffer (LSB), aqueous buffer. The class given is physicochemical.
For data set [1], the system named is panelists. The experiment in a line: Sensory study, cooling line scale vs WS-3 (section 1.2). Format: in vivo, human. As to conditions: for Average Cooling: 15 point line scale. The procedure:
Three typical sensory studies are described below each followed by a table summarizing sensory results of selected compounds of the invention (Tables 1.2 to 1.4).
(§1) All samples made with Low Sodium Buffer (LSB) pH ˜7.1 and contain 0.1% ethanol.
(§2) Compounds are rated on a 15 point line scale where 45 μM WS-3 (N-Ethyl-p-menthane-3-carboxamide) is ranked as a 5 in cool intensity. In most cases our compounds are tested to determine at what concentration the cooling intensity is equivalent to 45 μM WS-3. In each test, the panelist is presented with a 0 μM control sample, a 45 μM WS-3 control sample and the experimental compound sample and asked to rate the cooling intensity of each sample. Panelists are also asked to rate bitterness. In the table below there was no significant bitterness detected unless otherwise noted. Also, in the table below, n represents the number of tests completed for a given experiment (#panelists×#repetitions).

The subject of data set [2] is panelists. The experiment in a line: Sensory study, cool line scale test vs WS-3 (section 3.2). The class given is in vivo, human. As to conditions: Table 3.2; 45 μM WS-3 control; n = 30. The procedure: Two typical sensory studies are described below each followed by a table summarizing sensory results of selected compounds of the invention (Tables 3.2 and 3.3).
as §1
as §2, with “The test is a cool line scale test with timed 30 seconds interval. Compounds” for “Compounds”, “intensity. The present compound was” for “intensity. In most cases our compounds are”, “panelist was” for “panelist is”, “Panelists were” for “Panelists are”

Data set [3] relates to panelists. The experiment in a line: Sensory studies, cool line scale vs WS-3 (section 2.2). Format: in vivo, human. An excerpt: The results are presented relative to a known concentration of WS-3. A more specific detailed example of the sensory evaluation of selected examples are also presented below. […]

T1 sequence (Q7Z2W7 whole entry): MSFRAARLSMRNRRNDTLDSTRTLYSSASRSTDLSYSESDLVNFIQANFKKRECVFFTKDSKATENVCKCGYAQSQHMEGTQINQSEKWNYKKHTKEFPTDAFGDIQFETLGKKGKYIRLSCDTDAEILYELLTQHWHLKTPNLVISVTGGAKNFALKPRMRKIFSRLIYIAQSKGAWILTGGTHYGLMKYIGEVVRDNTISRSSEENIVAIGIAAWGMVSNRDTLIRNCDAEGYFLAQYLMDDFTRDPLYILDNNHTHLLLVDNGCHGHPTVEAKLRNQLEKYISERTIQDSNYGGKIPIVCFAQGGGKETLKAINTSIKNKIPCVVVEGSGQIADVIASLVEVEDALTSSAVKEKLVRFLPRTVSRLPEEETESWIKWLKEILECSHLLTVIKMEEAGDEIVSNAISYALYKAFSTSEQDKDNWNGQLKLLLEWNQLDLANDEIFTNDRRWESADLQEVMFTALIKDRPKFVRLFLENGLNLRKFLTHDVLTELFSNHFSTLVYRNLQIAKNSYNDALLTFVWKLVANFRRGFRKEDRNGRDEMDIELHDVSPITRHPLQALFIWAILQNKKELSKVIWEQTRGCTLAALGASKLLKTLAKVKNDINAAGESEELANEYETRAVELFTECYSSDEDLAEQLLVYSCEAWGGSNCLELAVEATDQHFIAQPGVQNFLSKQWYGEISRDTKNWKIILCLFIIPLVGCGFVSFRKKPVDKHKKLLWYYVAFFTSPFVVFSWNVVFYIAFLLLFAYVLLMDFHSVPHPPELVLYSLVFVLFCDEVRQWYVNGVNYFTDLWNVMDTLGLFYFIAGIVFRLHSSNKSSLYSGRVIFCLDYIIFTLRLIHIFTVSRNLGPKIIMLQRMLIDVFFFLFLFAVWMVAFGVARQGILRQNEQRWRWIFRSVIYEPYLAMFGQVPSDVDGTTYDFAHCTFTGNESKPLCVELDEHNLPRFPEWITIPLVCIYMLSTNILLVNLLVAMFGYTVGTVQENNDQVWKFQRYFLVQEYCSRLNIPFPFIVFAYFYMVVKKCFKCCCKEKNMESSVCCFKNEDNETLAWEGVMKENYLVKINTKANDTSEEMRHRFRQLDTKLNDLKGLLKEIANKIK

For the compound `CN1C(=O)N(CC(=O)c2cccnc2)C(=O)C(C)(C2=CCCCC2)C1=O` (stereo not drawn), the melting point (in general, the temperature, or range, at which the solid turns liquid) fell in the range of 109 to 111 °C.
As for `CC1=NN(CC(=O)c2ccccc2)C(=O)C1(C)C1CCCCC1` (stereo not drawn) [Example 1.1, 4-cyclohexyl-3,4-dimethyl-1-(2-oxo-2-phenylethyl)-1H-pyrazol-5(4H)-one], on hTRPM8, the EC50 (in general, the concentration that produces a half-maximal response) came out at 34 nM and the “hTRPM8 EC50 Ratio” value came out at 100.0. Also, the solubility – broadly, the dissolved amount per volume that the medium holds – in the data set “Solubility in LSB” stood at 337 µM (≈ 105 µg/mL). Besides, the “Average Cooling” value with panelists [1] (Table 1.2, 5 μM, n = 30) is recorded as 4.7. Further, the “Sensory Results” value in the data set with panelists [1] (compound concentration compared in cooling intensity with 45 uM WS-3, LSB pH ~7.1, 0.1% ethanol) is 5 uM~45 uM WS-3.
Consider `CCNC(=O)C1CC(C)CCC1C(C)C` (stereo not drawn) [WS-3, N-Ethyl-p-menthane-3-carboxamide, reference compound], for which the “Average Cooling” value in the data set with panelists [1] (Table 1.2, 45 μM WS-3 control, n = 30) is reported as 4.4; in the data set with panelists [1] (Table 1.3, 45 μM WS-3 control, n = 28), 5.4; in the data set on panelists [1] (Table 1.4, 45 μM WS-3 control, n = 28), 4.1; with panelists [2] it was 4.5. Besides, in the data set with panelists [3] (60 μM in LSB at pH 7.1), the “Cool intensity compared with LSB (line scale conclusion)” value is on record as “significantly higher in cool intensity than LSB”. The “Ave Cool” value with panelists [3] (Table 2.1, 60 μM WS-3, n = 10) came to 3.7.
